Test results published in patent US20220026421A1, “METHOD, SURFACE, PARTICLE AND KIT FOR THE DETECTION OF ANALYTES IN SAMPLES” (TECHNISCHE UNIVERSITÄT DRESDEN, priority 2018, published 2022).

Target: EcEPSPS (UniProt P0A6D3+Q04571)
Conditions: FIG. 2; surfaces incubated with 10 mM solution, then glyphosate-coated particles; Ccg2 / Ccg2_GS_EcEPSPS coated glass
Description: The immobilised enzymes on the surface interact attractively with the particle-bound competitor, resulting in a characteristic contact area between the surface and the particle. The dissolved analyte competes with the competitor for the binding sites on the surface. […] The determination of the contact and particle radius to ascertain the adhesion energy takes place by means of reflection interference contrast microscopy.
The surfaces were then incubated with either 10 mM glyphosate or glufosinate solutions and then with linker-functionalised particles with or without glyphosate coating.
The surfaces were then incubated with glyphosate solutions of different concentrations and then with glyphosate-coated particles with ethylenediamine or pentaglycine linkers. […]
The recording of the radial intensity profiles of the HGS on the functionalised surface took place in the reflection interference contrast method by means of an inverted microscope system (Olympus IX 73) with a 60× immersion objective (Olympus UPIanSAPO 60× Oil Microscope Objective). From the recorded profiles, the contact radii a of particles and surface as well as the particle radii RHES could be automatically ascertained subsequently by means of software specially developed for this purpose. According to the Johnson-Kendall-Roberts model [2], these quantities are related to the adhesion energy Wadh in the following context: […]

SMILES: O=C(O)CNCP(=O)(O)O [glyphosate, N-(phosphonomethyl)glycine]
- influence of soluble compound on the adhesion energy between glyphosate-coated particle and surface: in the range of the negative control
